Results published in patent US20030125234A1, “Alteration of protein stability” (priority 2001, published 2003).

Key:
Type in all cases: biochemical
[1] = target: human acidic fibroblast growth factor (FGF-1) (Homo sapiens, UniProt P05230); experiment: FGF-1 thermal aggregation (turbidity at 360 nm); details: FGF-1 50 μg/mL, 50° C., standard deviation in parenthesis
Protocol: (§1) Bovine insulin [Sigma, St. Louis, Mo., USA] was dissolved in phosphate saline (PBS) (50 mM sodium biphosphate, 100 mM sodium chloride), pH 7.0, bovine alpha-lactalbumin [Sigma] in 50 mM sodium phosphate, 100 mM sodium chloride and 2 mM EDTA, pH 6.2, chicken egg white lysozyme [Sigma] in 100 mM Tris, 1 mM EDTA, pH 8.2, human acidic fibroblast growth factor (FGF-1) in 6.2 mM sodium biphosphate, 120 mM sodium chloride, pH 7.2, porcine somatotropin (pST) [provided by Pfizer, Inc., Groton, Conn., USA] in 10 mM phosphate, pH 6. 1, human apolactoferrin (HLF) [Sigma] in 20 mM HEPES, 154 mM NaCl, pH 7.4, porcine heart citrate synthase (CS) in 40 mM HEPES, 50 mM KCl, 10 mM (NH4)2SO4 mM potassium acetate, pH 7.8, and yeast alcohol dehydrogenase (ADH) [Sigma] in pH 7.0 PBS. Selection of buffer solutions was based on an extensive series of preliminary studies to obtain appropriate insolubilization kinetics as described below.
(§2) The following compounds were obtained from Sigma and used without further purification: oxalic acid, sodium malonate, succinic acid, glutaric acid, adipic acid, pimelic acid, suberic acid, azelaic acid, guanidine hydrochloride, ammonium formate, beta-alanine, 4-aminobutyric acid, 5-aminovaleric acid, 6-aminocaproic acid, 7-aminoheptanoic acid, hydrazine, ethylenediamine, 1,3-diaminopropane, 1,4-diaminobutane, 1,5-diaminopentane, 1,6-diaminohexane, 1,7-diaminoheptane, Glu-Glu, Glu-Lys, Lys-Lys, diglycine, triglycine, tetraglycine, pentaglycine, and hexaglycine. […] Triglycine and tetraglycine were dissolved in pH 8.6 PBS, while pentaglycine and hexaglycine were dissolved in pH 10.6 PBS.
(§3) Each was either dissolved in pH 7.0 PBS, or pH 6.1 10 mM phosphate, and adjusted to the same pH.
(§4) Protein aggregation was monitored for 1 hour at 360 nm using an HP8453 UV-visible spectrophotometer system [Hewlett Packard, Germany]. […] Insulin (0.25 mg/mL (4.39E-5 M)) aggregation was monitored at 25° C. after addition of potential inhibitors and 20 μL of 1 M DTT (1.27E-4 M). Alpha-lactabumin (0.4 mg/mL (2.82E-5 M)) aggregation was monitored at 37° C. in the presence of 20 μL of 1 M DTT (1.27E-4 M). Lysozyme (0.4 mg/mL (2.86E-5 M)) aggregation was monitored at 25° C. in the presence of 20 μL of 1 M DTT (1.27E-4 M). FGF-1 (50 μg/mL (3.12E-6 M)) aggregation was monitored at 50° C. Porcine somatotropin (1.27 mg/mL (5.76E-5 M)) aggregation was monitored at 60° C. in the presence of PEG 8000 (20 mg/mL) which was included to enhance the protein association process through a simple exclusion volume effect. HLF (0.4 mg/mL (5.23E-6 M)) aggregation was monitored at 43° C. in the presence of 1.27E-4 M DTT. Citrate synthase (96 μg/mL (9.80E-7 M)) aggregation was monitored at45° C. ADH (1 mg/mL (7.14E-6 M)) was monitored at 37° C. following the addition of 7.76E-5 M Cu(OP)2. Aggregation was compared to protein in the absence of the particular dipolar compound. After stirring, experiments were initiated by the addition of proteins followed by stressing reagents to 1 cm pathlength cuvettes employing a seven-position thermostatted sample holder that was cycled at 30-second intervals. Alternatively, a microtiter plate reader was employed under the same conditions in a 96 well format.
(§5) All optical density (OD)360nm versus time results were exported into Excel [Microsoft] for data analysis. […] The maximum rate of change in OD versus time plots (r) was used to determine the rate of the reaction from the slope at this point.

[2] = target: T1, porcine heart citrate synthase (CS) (Sus scrofa, UniProt P00889); experiment: Citrate synthase thermal aggregation (turbidity at 360 nm); details: for inhibition index: CS 96 μg/mL, 45° C., standard deviation in parenthesis
T1 construct: porcine heart citrate synthase (CS); from tissue; host or cells: porcine heart
T1 sequence (P00889 28-464): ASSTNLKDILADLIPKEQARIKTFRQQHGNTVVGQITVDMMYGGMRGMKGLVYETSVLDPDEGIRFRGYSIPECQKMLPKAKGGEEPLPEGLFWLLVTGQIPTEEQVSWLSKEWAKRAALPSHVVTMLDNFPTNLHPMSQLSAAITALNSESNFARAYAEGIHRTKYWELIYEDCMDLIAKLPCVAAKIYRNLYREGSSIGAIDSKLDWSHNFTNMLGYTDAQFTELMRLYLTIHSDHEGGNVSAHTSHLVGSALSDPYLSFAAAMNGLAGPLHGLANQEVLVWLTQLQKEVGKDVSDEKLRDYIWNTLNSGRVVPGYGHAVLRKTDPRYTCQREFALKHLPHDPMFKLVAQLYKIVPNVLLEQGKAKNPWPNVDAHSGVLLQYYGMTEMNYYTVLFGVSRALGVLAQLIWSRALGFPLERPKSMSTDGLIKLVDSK
Protocol: as §1, §2, §3, §4, §5

Bovine insulin = target: T2, Bovine insulin (Bos taurus, UniProt P01317); experiment: Insulin aggregation (turbidity at 360 nm) induced by DTT; details: Insulin 0.25 mg/mL, 25° C., DTT; compound 100×; standard deviation in parenthesis
T2 construct: purchased Sigma, St. Louis, Mo., USA
Protocol: as §1
(§6) Copper O-phenanthroline (1,10-phenanthroline) was prepared by mixing copper sulfate hexahydrate [Fisher] and o-phenanthroline [Sigma] in a 1:2 ratio. 1 M Dithiothreitol (DTT) was prepared at pH 7.0 PBS. Polyethylene glycol (M.W. 8000, Union Carbide, Danbury, Conn., USA) (PEG) was prepared at 20 mg/mL in 10 mM phosphate, pH 6.1.
as §2, §3, §4
(§7) All optical density (OD)360nm versus time results were exported into Excel [Microsoft] for data analysis.

[3] = target: T3, human apolactoferrin (HLF) (Homo sapiens, UniProt P02788); experiment: HLF aggregation (turbidity at 360 nm) induced by DTT; details: HLF 0.4 mg/mL, 43° C., DTT, head 10,000×, standard deviation in parenthesis
T3 construct: purchased Sigma
Protocol: as §1, §6, §2, §3, §4, §7

[4] = target: T4, yeast alcohol dehydrogenase (ADH) (Saccharomyces cerevisiae, UniProt P00330); experiment: ADH oxidation-induced aggregation (turbidity at 360 nm), Cu(OP)2; details: for inhibition index: ADH 1 mg/mL, 37° C., Cu(OP)2
T4 construct: purchased Sigma
T4 sequence (P00330 2-348 limits assumed): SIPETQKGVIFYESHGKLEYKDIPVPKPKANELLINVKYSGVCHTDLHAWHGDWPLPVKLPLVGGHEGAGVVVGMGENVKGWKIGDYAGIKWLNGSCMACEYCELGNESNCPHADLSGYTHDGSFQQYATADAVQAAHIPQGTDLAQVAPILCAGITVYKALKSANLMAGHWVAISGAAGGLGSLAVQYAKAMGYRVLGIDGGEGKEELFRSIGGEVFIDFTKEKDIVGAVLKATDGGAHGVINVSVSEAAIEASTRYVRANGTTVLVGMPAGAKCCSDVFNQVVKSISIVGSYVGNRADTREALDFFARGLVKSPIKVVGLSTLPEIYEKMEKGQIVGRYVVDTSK
Protocol: as §1, §6, §2, §3, §4, §7

[5] = target: T5, chicken egg white lysozyme (Gallus gallus, UniProt P00698); experiment: Lysozyme aggregation (turbidity at 360 nm) induced by DTT; details: Lysozyme 0.4 mg/mL, 25° C., DTT; compound 1,000×; standard deviation in parenthesis
T5 construct: chicken egg white lysozyme [Sigma]; purchased Sigma; host or cells: egg white
Protocol: as §1, §6, §2, §3, §4, §7

bovine alpha-lactalbumin = target: T6, bovine alpha-lactalbumin (Bos taurus, UniProt P00711); experiment: Alpha-lactalbumin aggregation (turbidity at 360 nm) induced by DTT; details: for inhibition index: α Lactalbumin 0.4 mg/mL, 37° C., DTT, compound 1,000×, standard deviation in parenthesis
T6 construct: purchased Sigma
T6 sequence (P00711 20-142): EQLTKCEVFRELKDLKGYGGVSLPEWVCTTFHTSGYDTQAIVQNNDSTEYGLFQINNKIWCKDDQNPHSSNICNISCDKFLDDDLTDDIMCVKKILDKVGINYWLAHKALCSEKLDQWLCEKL
Protocol: as §1, §6, §2, §3, §4, §7

[6] = target: T7, porcine somatotropin (pST) (Sus scrofa, UniProt P01248); experiment: Porcine somatotropin aggregation (turbidity at 360 nm) with PEG 8000; details: pST 1.27 mg/mL, 60° C., standard deviation in parenthesis
T7 construct: purchased Pfizer, Inc., Groton, Conn., USA (provided, not bought)
T7 sequence (P01248 27-216): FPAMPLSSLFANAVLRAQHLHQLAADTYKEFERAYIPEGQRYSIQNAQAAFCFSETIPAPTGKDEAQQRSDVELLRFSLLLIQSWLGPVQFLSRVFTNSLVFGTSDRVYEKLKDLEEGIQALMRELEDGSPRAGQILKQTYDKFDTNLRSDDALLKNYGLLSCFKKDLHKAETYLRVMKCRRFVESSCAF
Protocol: as §1, §6, §2, §3, §4, §7

[7] = compound 1,000X, standard deviation in parenthesis
[8] = compound 10,000X molar excess, Infinite = complete inhibition of aggregation over one hour

Sequence of human acidic fibroblast growth factor (FGF-1) (P05230 whole entry): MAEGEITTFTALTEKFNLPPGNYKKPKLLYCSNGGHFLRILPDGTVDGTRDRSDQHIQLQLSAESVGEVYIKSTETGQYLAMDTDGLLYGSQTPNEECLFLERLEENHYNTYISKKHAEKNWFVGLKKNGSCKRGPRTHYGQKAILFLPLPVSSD
T2 sequence (P01317 25-54 limits assumed): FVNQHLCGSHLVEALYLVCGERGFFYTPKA
T2 sequence (P01317 85-105 limits assumed): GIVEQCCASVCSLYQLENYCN
T5 sequence (P00698 19-147): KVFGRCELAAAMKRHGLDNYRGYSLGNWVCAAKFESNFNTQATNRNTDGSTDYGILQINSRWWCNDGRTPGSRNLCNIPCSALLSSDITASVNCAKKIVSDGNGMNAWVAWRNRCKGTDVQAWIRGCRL
T3 sequence (P02788 20-710): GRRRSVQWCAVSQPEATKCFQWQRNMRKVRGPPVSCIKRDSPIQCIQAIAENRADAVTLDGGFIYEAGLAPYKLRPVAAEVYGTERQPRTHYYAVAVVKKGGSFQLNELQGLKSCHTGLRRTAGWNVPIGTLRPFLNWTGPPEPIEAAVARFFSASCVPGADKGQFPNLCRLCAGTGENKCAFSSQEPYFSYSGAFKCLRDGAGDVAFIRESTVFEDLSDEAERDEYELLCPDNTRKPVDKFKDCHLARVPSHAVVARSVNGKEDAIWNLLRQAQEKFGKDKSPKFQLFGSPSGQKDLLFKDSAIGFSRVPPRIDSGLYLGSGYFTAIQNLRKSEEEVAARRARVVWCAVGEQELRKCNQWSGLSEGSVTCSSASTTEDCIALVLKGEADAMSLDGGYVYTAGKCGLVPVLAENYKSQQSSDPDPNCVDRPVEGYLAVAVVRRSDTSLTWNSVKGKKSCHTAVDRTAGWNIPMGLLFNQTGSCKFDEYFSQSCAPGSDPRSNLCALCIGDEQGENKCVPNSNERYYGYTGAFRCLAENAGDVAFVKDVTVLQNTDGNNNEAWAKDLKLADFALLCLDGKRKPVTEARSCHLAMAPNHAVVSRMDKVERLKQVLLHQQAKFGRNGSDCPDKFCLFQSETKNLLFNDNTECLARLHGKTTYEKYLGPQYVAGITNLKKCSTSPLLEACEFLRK

Compound	inhibition index ([1]; compound 1,000×)	inhibition index ([2]; compound 1,000X)	inhibition index (Bovine insulin)	inhibition index ([3]; first HLF column)	inhibition index [4, 7]	inhibition index [5]	inhibition index ([1]; compound 10,000×)	inhibition index ([2]; compound 10,000X)	inhibition index ([2]; compound 50,000X)	inhibition index ([3]; second HLF column)	inhibition index (bovine alpha-lactalbumin)	inhibition index [4, 8]	inhibition of ADH aggregation, in words ([4]; FIG. 1)	inhibition index ([6]; compound 100X)	inhibition index ([6]; compound 2,000X)	inhibition of citrate synthase aggregation, in words [2]	inhibition of α-lactalbumin aggregation, in words (bovine alpha-lactalbumin)
CH3—NH2-(Glu)^−-(Gly)n-(Glu)^−-COO^− [CH3—NH2—(E)^−—(G)5—(E)^−—COO^−]	12.3 (0.4)	0.6 (0.1)	1.3 (0.1)	1.6 (0.1)	1.2 (0.1)	0.1 (0.1)											
Cl.N=C(N)N [guanidine HCl, guanidine hydrochloride]	1.2 (0.2)		0.9 (0.4)			0.9 (0.2)	2.8 (0.9)	0.6 (0.4)	0.4 (0.1)	0.9 (0.1)	1.7 (0.6)	0.2 (0.1)					
CH3—NH2-(Glu)^−-(Gly)n-(Glu)^−-COO^− [CH3—NH2—(E)^−—(G)2—(E)^−—COO^−]	2.5 (0.6)	0.9 (0.2)	1.0 (0.2)	1.7 (0.2)	1.1 (0.1)	0.8 (0.4)					0.4 (0.2)						
[Cl-].[Na+] [NaCl]													negligible effect on aggregation				
N.O=CO [ammonium formate]	0.9 (0.1)		1.2 (0.5)			1.5 (0.3)	1.3 (0.3)	0.6 (0.0)	1.2 (0.3)	5.8 (1.1)	0.8 (0.3)	1.2 (0.1)					
O=C(O)CCCCCCCC(=O)O [azelaate, azelaic acid]	1.9 (0.2)		1.5 (0.4)			1.0 (0.2)	6.1 (2.6)	0.7 (0.6)	4.4 (1.8)	1455.0	2.3 (0.6)			0.6 (0.0)	1.3 (0.3)		
CH3—NH2-(Glu)^−-(Gly)n-(Glu)^−-COO^− [CH3—NH2—(E)^−—(G)4—(E)^−—COO^−]	1.6 (0.2)	0.7 (0.1)	1.4 (0.6)	1.7 (0.3)	1.4 (0.1)	0.9 (0.3)					0.7 (0.4)						
Glu-Lys	1.6 (0.3)	0.8 (0.2)	1.0 (0.1)	9.8 (0.3)	1.7 (0.1)	1.0 (0.4)	11.0 (3.0)	1.6 (0.2)	21.5	44.5	1.0 (0.1)	18.4				Potent inhibitors	
^+NH3-(Lys)^+-(Gly)n-(Lys)^+-CONH2 [^+NH3—(K)^+—(G)5—(K)^+—CONH2]	3.3 (0.8)	0.8 (0.1)	1.7 (1.0)	1.5 (0.3)	1.5 (0.2)	0.8 (0.4)					2.6 (1.1)						Potent inhibitors
^+NH3-(Lys)^+-(Gly)n-(Lys)^+-CONH2 [^+NH3—(K)^+—(G)3—(K)^+—CONH2]	1.5 (0.4)	0.6 (0.1)	0.9 (0.3)	2.1 (0.1)	1.2 (0.1)	1.2 (0.7)					0.8 (0.1)						
